Values joined by “and” are separate entries in the source; they are usually repeats but may differ in a detail not shown here. Identical values can stand only once. Inconclusive results and toxic doses are left out.

The values that follow come from PubChem BioAssay AID330 (DTP/NCI, 2004).

The experiment has as its system P388 leukemia ip, CD2F1 mice, survival T/C. As to the kind of experiment: NCI In Vivo Anticancer Drug Screen. Data for tumor model P388 Leukemia (intraperitoneal) in CD2F1 (CDF1) mice. Particulars: endpoint: median survival time, higher = longer survival. Put shortly:
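Mice carrying the transplanted tumor received test compound or vehicle. Survival was recorded in each group, and the value is the treated-group measurement divided by that of the vehicle-treated control group.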

Setting [1] is: dose: 50.0 mg/kg/injection, schedule: Q01DX005 (ip), vehicle: saline with Tween-80.
[2] abbreviates: dose: 100.0 mg/kg/injection, schedule: Q01DX005 (ip), vehicle: saline with Tween-80.
The mark [3] stands for this setting: dose: 25.0 mg/kg/injection, schedule: Q01DX009 (ip), vehicle: saline with Tween-80.
Where [4] appears, read: dose: 50.0 mg/kg/injection, schedule: Q01DX009 (ip), vehicle: saline with Tween-80.
[5] abbreviates: dose: 60.0 mg/kg/injection, schedule: Q01DX005 (ip), vehicle: saline with Tween-80.
[6] abbreviates: dose: 120.0 mg/kg/injection, schedule: Q01DX005 (ip), vehicle: saline with Tween-80.
Where [7] appears, read: dose: 240.0 mg/kg/injection, schedule: Q01DX005 (ip), vehicle: saline with Tween-80.
The mark [8] stands for this setting: dose: 100.0 mg/kg/injection, schedule: Q01DX009 (ip), vehicle: saline with Tween-80.
[9] abbreviates: dose: 25.0 mg/kg/injection, schedule: Q01DX005 (ip), vehicle: saline with Tween-80.
Setting [10] is: dose: 200.0 mg/kg/injection, schedule: Q01DX005 (ip), vehicle: saline with Tween-80.
Setting [11] is: dose: 12.5 mg/kg/injection, schedule: Q01DX005 (ip), vehicle: saline with Tween-80.

Regarding `O=S1(=O)CC(Cl)(Cl)C1`, the T/C reads like this: under setting [1], 102 % of control; under setting [2], 109 % of control.
As for `CS(=O)(=O)OCC(Br)C(Br)COS(C)(=O)=O` (centres undefined), the T/C runs as follows: (dose: 50.0 mg/kg/injection, schedule: Q01DX009 (ip), vehicle: Klucel (hydroxypropylcellulose) (HPC)) 107 % of control; (dose: 100.0 mg/kg/injection, schedule: Q01DX009 (ip), vehicle: Klucel (hydroxypropylcellulose) (HPC)) 87 % of control.
Turning to `CC(=O)OCC1OC(n2cnc3c(=S)nc(N)[nH]c32)C(OC(C)=O)C1OC(C)=O` (centres undefined), the T/C (dose: 12.5 mg/kg/injection, schedule: Q04DX003 (ip), vehicle: saline with Tween-80) is 118 % of control; the T/C under setting [3] is 122 % of control; the T/C under setting [4] was 113 % of control; the T/C (dose: 300.0 mg/kg/injection, schedule: Q04DX003 (ip), vehicle: saline with Tween-80) is 100 % of control.
`Cc1ccc(C(=O)CC2(O)C(=O)Nc3c(Cl)cc(Cl)cc32)cc1` (centres undefined): the T/C was 103 % of control under setting [5], 108 % of control under setting [6] and 100 % of control under setting [7].
As for `CCCC/C=C/[Se]c1ccccc1`, the T/C is, setting by setting: under setting [3], 101 % of control; under setting [4], 151 % of control; under setting [8], 109 % of control.
`Fc1cccc2c(C#Cc3ccccc3)c3ccccc3c(C#Cc3ccccc3)c12`: the T/C (dose: 1.5 mg/kg/injection, schedule: Q01DX005 (ip), vehicle: saline with Tween-80) is 100 % of control; the T/C (dose: 3.0 mg/kg/injection, schedule: Q01DX005 (ip), vehicle: saline with Tween-80) was 100 % of control; the T/C (dose: 6.0 mg/kg/injection, schedule: Q01DX005 (ip), vehicle: saline with Tween-80) was 97 % of control; the T/C under setting [9] was 92 % of control; the T/C under setting [2] was 94 % of control; the T/C under setting [10] was 87 % of control.
As for `CCN(CC)CCNc1ccc(COC(=O)OC)c2oc3ccccc3c(=O)c12`, the T/C runs as follows: (dose: 6.25 mg/kg/injection, schedule: Q01DX005 (ip), vehicle: saline with Tween-80) 115 % of control; under setting [11], 111 % of control; under setting [9], 97 % of control.
For the compound `CC1=CN2C(c3ccccc3)=NON(c3ccc(C)cn3)C2C=C1` (centres undefined), the T/C under setting [10] was 92 % of control.
For the compound `CC(=O)N(O)c1ccc(Cl)cc1`, the T/C runs as follows: (dose: 25.0 mg/kg/injection, schedule: Q04DX002 (ip), vehicle: saline with Tween-80) 100 % of control; (dose: 50.0 mg/kg/injection, schedule: Q04DX002 (ip), vehicle: saline with Tween-80) 102 % of control; (dose: 100.0 mg/kg/injection, schedule: Q04DX002 (ip), vehicle: saline with Tween-80) 100 % of control; (dose: 200.0 mg/kg/injection, schedule: Q04DX002 (ip), vehicle: saline with Tween-80) 105 % of control.
Consider `N#Cc1c2ccccc2cc[n+]1Cc1ccc2c(c1)OCO2`, for which the T/C is, setting by setting: (dose: 3.12 mg/kg/injection, schedule: Q04DX002 (ip), vehicle: Klucel (hydroxypropylcellulose) (HPC)) 105 % of control; (dose: 6.25 mg/kg/injection, schedule: Q04DX002 (ip), vehicle: Klucel (hydroxypropylcellulose) (HPC)) 104 % of control; (dose: 12.5 mg/kg/injection, schedule: Q04DX002 (ip), vehicle: Klucel (hydroxypropylcellulose) (HPC)) 100 % of control and 106 % of control.
For `COc1ccc(C(c2c(O)c3ccccc3oc2=O)c2c(O)c3ccccc3oc2=O)cc1`, the T/C runs as follows: (dose: 15.0 mg/kg/injection, schedule: Q01DX005 (ip), vehicle: saline with Tween-80) 98 % of control; (dose: 30.0 mg/kg/injection, schedule: Q01DX005 (ip), vehicle: saline with Tween-80) 98 % of control; under setting [5], 100 % of control and 98 % of control.
As for `CC1=CN2C(c3cccc([N+](=O)[O-])c3)=NON(c3ccc(C)cn3)C2C=C1` (centres undefined), the T/C reads like this: under setting [5], 87 % of control; under setting [6], 86 % of control; under setting [7], 92 % of control.
For the compound `O=C1CC2C(=O)NC(=O)C2C(=O)N1` (centres undefined), the T/C reads like this: under setting [1], 104 % of control; under setting [2], 101 % of control; under setting [10], 99 % of control.
`C1NNCC12CNNC2`: the T/C is 94 % of control (dose: 100.0 mg/kg/injection, schedule: Q04DX003 (ip), vehicle: suspension in saline); 94 % of control (dose: 200.0 mg/kg/injection, schedule: Q04DX003 (ip), vehicle: suspension in saline); 90 % of control (dose: 400.0 mg/kg/injection, schedule: Q04DX003 (ip), vehicle: suspension in saline).
On to `CCC(C)C1NC(=O)C2C(CCN2C(=O)C(Cc2c[nH]c3ccccc23)NC(=O)C(CC(C)C)N(C)C)Oc2ccc(cc2)/C=C\NC1=O` (centres undefined), for which the T/C reads like this: (dose: 100.0 mg/kg/injection, schedule: Q04DX003 (ip), vehicle: saline with Tween-80) 94 % of control; (dose: 200.0 mg/kg/injection, schedule: Q04DX003 (ip), vehicle: saline with Tween-80) 97 % of control.
On to `COc1cc2c(cc1OC)CN1CCc3cc(OC)c(OC)cc3[C@@H]1C2`, for which the T/C under setting [11] was 100 % of control; the T/C under setting [9] is 102 % of control; the T/C under setting [1] is 104 % of control and 98 % of control.
Turning to `NC(CCl)=NCC12CC3CC(CC(C3)C1)C2`, under “dose: 12.5 mg/kg/injection, schedule: Q01DX009 (ip), vehicle: Klucel (hydroxypropylcellulose) (HPC)”, the T/C was 90 % of control.
`Cc1cc2ccccc2c2nncn12`: the T/C under setting [4] is 103 % of control and the T/C under setting [8] was 103 % of control.
On to `CC(=O)O/N=C/c1ccncc1`, for which the T/C by setting is: (dose: 25.0 mg/kg/injection, schedule: Q04DX003 (ip), vehicle: saline) 108 % of control; (dose: 50.0 mg/kg/injection, schedule: Q04DX003 (ip), vehicle: saline) 101 % of control; (dose: 100.0 mg/kg/injection, schedule: Q04DX003 (ip), vehicle: saline) 107 % of control; (dose: 200.0 mg/kg/injection, schedule: Q04DX003 (ip), vehicle: saline) 109 % of control; (dose: 400.0 mg/kg/injection, schedule: Q04DX003 (ip), vehicle: saline) 117 % of control.
On to `O=C1c2ccccc2C2(O)C3C=CCCN3CN12` (centres undefined), for which the T/C is 101 % of control (dose: 50.0 mg/kg/injection, schedule: Q01DX005 (ip), vehicle: Klucel (hydroxypropylcellulose) (HPC)); 100 % of control (dose: 100.0 mg/kg/injection, schedule: Q01DX005 (ip), vehicle: Klucel (hydroxypropylcellulose) (HPC)); 100 % of control (dose: 200.0 mg/kg/injection, schedule: Q01DX005 (ip), vehicle: Klucel (hydroxypropylcellulose) (HPC)).
With `CC1=CC(=O)NC1O` (centres undefined), the T/C was 104 % of control (dose: 2.5 mg/kg/injection, schedule: Q01DX010 (ip), vehicle: saline); 95 % of control (dose: 5.0 mg/kg/injection, schedule: Q01DX010 (ip), vehicle: saline); 90 % of control (dose: 10.0 mg/kg/injection, schedule: Q01DX010 (ip), vehicle: saline); 95 % of control (dose: 15.0 mg/kg/injection, schedule: Q01DX010 (ip), vehicle: saline); 95 % of control (dose: 23.0 mg/kg/injection, schedule: Q01DX009 (ip), vehicle: saline); 86 % of control (dose: 35.0 mg/kg/injection, schedule: Q01DX009 (ip), vehicle: saline). Also, the T/C (dose: 50.0 mg/kg/injection, schedule: Q01DX009 (ip), vehicle: saline) was 104 % of control.
As for `O=C(O)C1CCC[N-]C1.O=C(O)C1CCC[N-]C1.[Cl][Pt+2][Cl]` (centres undefined), the T/C was 100 % of control (dose: 5.0 mg/kg/injection, schedule: Q01DX009 (ip), vehicle: saline with Tween-80); 104 % of control (dose: 10.0 mg/kg/injection, schedule: Q01DX009 (ip), vehicle: saline with Tween-80); 109 % of control (dose: 20.0 mg/kg/injection, schedule: Q01DX009 (ip), vehicle: saline with Tween-80).
Turning to `CCOC(=O)CCc1cnc[nH]1`, the T/C is 108 % of control (dose: 60.0 mg/kg/injection, schedule: Q01DX005 (ip), vehicle: saline); 106 % of control (dose: 120.0 mg/kg/injection, schedule: Q01DX005 (ip), vehicle: saline); 98 % of control (dose: 240.0 mg/kg/injection, schedule: Q01DX005 (ip), vehicle: saline).
Regarding `CN1CC2c3cc4c(cc3CC1c1cc3c(cc12)OCO3)OCO4` (centres undefined), the T/C is, setting by setting: (dose: 100.0 mg/kg/injection, schedule: Q01DX001 (ip), vehicle: saline with Tween-80) 108 % of control; (dose: 200.0 mg/kg/injection, schedule: Q01DX001 (ip), vehicle: saline with Tween-80) 108 % of control.
